Data: patent US20250243171A1, “QUINAZOLINE COMPOUNDS FOR TREATMENT OF DISEASE” (Arthrosi Therapeutics, Inc., priority 2021, published 2025)

Legend:
Assay in all cases: EC50 assay: Ba/F3 stable cell proliferation (CCK-8, 72 h)
Assay type in all cases: cell-based
Ba/F3 stable cells [1] = target: T1, Ba/F3 stable cells (Homo sapiens, UniProt P00533, DUP767-769, cells depend on it); details: Ba/F3-EGFR V769-D770insASV cells
T1 construct: EC50 Ba/F3-EGFR V769-D770insASV; other: Ba/F3-EGFR V769-D770insASV cells, 72 h, CCK-8
T1 sequence (P00533 with tags, fused parts or gaps DUP767-769): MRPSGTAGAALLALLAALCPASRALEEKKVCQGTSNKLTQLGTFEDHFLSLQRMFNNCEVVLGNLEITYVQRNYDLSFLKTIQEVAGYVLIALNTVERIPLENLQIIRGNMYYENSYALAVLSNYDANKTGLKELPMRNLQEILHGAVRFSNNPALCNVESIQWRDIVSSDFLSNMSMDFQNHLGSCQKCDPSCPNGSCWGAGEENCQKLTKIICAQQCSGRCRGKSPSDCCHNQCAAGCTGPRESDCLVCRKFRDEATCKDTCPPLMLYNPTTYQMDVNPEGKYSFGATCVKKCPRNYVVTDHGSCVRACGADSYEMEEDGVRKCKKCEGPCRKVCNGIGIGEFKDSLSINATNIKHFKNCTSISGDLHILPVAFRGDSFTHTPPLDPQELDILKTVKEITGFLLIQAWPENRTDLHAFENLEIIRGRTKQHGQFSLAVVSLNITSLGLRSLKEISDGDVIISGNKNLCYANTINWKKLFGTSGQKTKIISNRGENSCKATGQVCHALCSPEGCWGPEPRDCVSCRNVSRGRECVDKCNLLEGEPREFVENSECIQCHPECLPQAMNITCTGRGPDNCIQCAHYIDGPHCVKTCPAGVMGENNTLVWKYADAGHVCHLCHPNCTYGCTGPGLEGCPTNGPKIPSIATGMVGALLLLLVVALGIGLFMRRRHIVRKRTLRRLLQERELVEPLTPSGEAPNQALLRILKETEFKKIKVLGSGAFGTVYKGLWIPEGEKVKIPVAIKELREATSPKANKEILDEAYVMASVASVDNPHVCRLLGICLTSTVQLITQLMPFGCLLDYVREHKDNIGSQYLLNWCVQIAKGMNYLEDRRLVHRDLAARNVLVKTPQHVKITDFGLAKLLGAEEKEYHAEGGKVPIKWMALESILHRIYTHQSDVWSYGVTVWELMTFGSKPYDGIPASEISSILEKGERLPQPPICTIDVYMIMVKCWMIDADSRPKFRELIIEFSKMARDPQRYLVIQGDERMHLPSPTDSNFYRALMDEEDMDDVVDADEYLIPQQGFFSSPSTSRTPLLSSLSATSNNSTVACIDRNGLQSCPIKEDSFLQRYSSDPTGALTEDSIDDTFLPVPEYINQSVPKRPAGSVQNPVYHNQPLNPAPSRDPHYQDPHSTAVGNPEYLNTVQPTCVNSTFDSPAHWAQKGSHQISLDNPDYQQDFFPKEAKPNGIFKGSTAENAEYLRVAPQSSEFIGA
Method in brief: (§1)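 Ba/F3 stable cells were seeded at 4,000 cells/90 μL/well in 96-well plates and held 2 h at 37° C. in 5% CO2, then given 10 μL of serially titrated compound (0.1% DMSO final). After 72 h at 37° C., CCK-8 reagent was added for 4 hours and absorbance read at 450 nm to derive EC50.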

Ba/F3 stable cells [2] = target: T2, Ba/F3 stable cells (Homo sapiens, UniProt P00533, DUP768-770, cells depend on it); details: Ba/F3-EGFR D770-N771insSVD cells
T2 construct: EC50 Ba/F3-EGFR D770-N771insSVD; other: Ba/F3-EGFR D770-N771insSVD cells, 72 h, CCK-8
Method in brief: as §1

Ba/F3 stable cells [3] = target: T3, Ba/F3 stable cells (Homo sapiens, UniProt P00533, DUP771-773, cells depend on it); details: Ba/F3-EGFR H773-V774insNPH cells
T3 construct: EC50 Ba/F3-EGFR H773-V774insNPH; other: Ba/F3-EGFR H773-V774insNPH cells, 72 h, CCK-8
T3 sequence (P00533 with tags, fused parts or gaps DUP771-773): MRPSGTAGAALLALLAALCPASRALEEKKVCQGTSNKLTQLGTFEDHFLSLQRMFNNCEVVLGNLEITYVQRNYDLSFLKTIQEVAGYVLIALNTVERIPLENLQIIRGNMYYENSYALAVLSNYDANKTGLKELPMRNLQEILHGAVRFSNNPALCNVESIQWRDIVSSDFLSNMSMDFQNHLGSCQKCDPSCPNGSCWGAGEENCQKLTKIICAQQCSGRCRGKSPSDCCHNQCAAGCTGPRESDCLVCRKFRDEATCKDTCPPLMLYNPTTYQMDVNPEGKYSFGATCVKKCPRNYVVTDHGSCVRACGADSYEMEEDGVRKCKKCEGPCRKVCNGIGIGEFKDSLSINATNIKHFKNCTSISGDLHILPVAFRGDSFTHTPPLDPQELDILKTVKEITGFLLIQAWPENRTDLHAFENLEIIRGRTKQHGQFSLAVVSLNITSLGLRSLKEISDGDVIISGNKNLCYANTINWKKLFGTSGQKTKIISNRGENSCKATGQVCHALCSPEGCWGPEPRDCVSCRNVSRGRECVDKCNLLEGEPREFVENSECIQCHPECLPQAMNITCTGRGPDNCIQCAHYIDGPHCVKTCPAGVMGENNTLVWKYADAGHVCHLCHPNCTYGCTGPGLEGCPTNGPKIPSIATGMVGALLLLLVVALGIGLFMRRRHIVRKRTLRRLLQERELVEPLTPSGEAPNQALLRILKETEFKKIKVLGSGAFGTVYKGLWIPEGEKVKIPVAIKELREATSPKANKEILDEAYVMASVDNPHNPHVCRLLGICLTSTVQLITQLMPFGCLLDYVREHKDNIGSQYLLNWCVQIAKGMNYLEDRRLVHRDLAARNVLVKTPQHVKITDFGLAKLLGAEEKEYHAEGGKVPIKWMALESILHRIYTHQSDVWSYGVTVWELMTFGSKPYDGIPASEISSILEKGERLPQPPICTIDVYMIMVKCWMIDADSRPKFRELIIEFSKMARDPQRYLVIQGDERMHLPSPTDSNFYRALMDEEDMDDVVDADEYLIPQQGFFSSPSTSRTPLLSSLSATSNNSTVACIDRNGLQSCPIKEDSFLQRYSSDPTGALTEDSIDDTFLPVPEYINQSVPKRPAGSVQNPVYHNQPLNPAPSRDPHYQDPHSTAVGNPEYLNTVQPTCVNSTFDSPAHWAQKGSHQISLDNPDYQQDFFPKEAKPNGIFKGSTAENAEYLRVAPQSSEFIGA
Method in brief: as §1

Ba/F3 stable cells [4] = target: T4, Ba/F3 stable cells (Homo sapiens, UniProt P00533, INS763FQEA, cells depend on it); details: Ba/F3-EGFR A763-Y764insFQEA cells
T4 construct: EC50 Ba/F3-EGFR A763-Y764insFQEA; other: Ba/F3-EGFR A763-Y764insFQEA cells, 72 h, CCK-8
Method in brief: as §1

Ba/F3 stable cells [5] = target: T5, Ba/F3 stable cells (Homo sapiens, UniProt P00533, T790M/L858R, cells depend on it); details: Ba/F3-EGFR L858R-T790M cells
T5 construct: EC50 Ba/F3-EGFR L858R-T790M; other: Ba/F3-EGFR L858R-T790M cells, 72 h, CCK-8
T5 sequence (P00533 whole entry T790M/L858R): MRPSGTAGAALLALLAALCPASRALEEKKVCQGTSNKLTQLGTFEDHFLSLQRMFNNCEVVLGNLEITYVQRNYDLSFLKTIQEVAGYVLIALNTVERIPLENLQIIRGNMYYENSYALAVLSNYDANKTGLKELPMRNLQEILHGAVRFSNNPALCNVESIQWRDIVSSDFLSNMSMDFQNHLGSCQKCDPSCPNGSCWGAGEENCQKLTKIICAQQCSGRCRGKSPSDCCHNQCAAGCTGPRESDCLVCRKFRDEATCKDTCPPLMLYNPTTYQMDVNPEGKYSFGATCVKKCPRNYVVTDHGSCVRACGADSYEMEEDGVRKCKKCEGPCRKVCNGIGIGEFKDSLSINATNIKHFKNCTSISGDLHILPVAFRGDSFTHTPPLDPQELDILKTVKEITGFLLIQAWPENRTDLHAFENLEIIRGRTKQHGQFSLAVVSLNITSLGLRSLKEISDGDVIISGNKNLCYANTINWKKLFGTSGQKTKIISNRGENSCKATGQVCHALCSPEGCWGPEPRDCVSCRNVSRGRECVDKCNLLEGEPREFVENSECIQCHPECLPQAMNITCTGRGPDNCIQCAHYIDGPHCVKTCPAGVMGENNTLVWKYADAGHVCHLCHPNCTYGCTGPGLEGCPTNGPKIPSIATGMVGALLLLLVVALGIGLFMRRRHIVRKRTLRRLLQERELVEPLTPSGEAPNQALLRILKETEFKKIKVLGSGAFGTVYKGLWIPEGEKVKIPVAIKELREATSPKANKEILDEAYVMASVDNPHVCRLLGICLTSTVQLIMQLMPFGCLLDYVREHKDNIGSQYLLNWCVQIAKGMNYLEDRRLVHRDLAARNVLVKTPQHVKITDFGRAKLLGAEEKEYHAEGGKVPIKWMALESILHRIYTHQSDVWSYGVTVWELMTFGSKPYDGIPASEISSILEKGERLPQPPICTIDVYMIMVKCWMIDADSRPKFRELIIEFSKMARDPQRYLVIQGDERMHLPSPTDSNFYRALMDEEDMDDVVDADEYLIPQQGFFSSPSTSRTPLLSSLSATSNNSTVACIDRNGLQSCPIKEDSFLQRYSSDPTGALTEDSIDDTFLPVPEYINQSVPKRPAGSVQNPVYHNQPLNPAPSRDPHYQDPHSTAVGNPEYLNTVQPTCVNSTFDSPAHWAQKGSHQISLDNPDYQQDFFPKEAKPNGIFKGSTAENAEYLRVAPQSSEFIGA
Method in brief: as §1

Ba/F3 stable cells [6] = target: T6, Ba/F3 stable cells (Homo sapiens, UniProt P04626, DUP772-775, cells depend on it); details: Ba/F3-HER2 A775-G776insYVMA cells
T6 construct: EC50 Ba/F3-HER2 A775-G776insYVMA; other: Ba/F3-HER2 A775-G776insYVMA cells, 72 h, CCK-8
T6 sequence (P04626 with tags, fused parts or gaps DUP772-775): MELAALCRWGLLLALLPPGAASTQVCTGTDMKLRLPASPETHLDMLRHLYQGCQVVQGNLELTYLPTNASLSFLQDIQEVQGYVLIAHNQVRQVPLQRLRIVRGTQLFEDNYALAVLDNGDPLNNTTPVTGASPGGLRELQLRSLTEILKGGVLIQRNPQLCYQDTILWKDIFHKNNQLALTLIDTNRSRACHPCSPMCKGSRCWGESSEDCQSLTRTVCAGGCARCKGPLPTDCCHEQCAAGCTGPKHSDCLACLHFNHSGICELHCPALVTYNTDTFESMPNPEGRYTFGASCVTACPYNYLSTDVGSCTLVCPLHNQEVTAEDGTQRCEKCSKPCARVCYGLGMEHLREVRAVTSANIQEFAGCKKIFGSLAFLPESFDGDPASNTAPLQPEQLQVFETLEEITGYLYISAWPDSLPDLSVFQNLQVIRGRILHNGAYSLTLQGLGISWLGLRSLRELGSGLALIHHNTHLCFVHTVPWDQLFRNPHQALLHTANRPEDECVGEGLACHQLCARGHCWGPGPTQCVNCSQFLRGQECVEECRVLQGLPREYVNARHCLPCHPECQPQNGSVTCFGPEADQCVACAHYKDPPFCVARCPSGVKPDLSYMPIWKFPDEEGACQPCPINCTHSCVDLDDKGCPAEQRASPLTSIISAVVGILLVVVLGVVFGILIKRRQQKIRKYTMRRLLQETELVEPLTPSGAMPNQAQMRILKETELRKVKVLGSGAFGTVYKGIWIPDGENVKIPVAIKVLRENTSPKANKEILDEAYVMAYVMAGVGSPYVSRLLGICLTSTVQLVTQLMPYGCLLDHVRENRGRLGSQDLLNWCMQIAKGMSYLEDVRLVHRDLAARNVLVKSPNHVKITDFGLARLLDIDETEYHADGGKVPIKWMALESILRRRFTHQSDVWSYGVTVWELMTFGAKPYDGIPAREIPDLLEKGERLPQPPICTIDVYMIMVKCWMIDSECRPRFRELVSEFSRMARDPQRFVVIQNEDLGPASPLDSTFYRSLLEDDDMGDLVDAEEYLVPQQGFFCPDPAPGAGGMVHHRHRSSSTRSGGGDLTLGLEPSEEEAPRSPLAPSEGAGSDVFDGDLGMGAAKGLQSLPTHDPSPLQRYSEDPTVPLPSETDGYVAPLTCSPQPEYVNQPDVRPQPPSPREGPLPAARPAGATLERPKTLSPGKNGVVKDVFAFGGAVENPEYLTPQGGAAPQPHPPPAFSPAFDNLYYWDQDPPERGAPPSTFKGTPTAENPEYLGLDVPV
Method in brief: as §1

| SMILES | EC50 (Ba/F3 stable cells [1]) | EC50 (Ba/F3 stable cells [2]) | EC50 (Ba/F3 stable cells [3]) | EC50 (Ba/F3 stable cells [4]) | EC50 (Ba/F3 stable cells [5]) | EC50 (Ba/F3 stable cells [6]) |
| --- | --- | --- | --- | --- | --- | --- |
| C=CC(=O)N1CCC(Oc2cc3c(NCc4cc(F)cc(Cl)c4)ncnc3cc2OC)CC1 [Compound 122, 1-(4-((4-((3-chloro-5-fluorobenzyl)amino)-7-methoxyquinazolin-6-yl)oxy)piperidin-1-yl)prop-2-en-1-one] | 200 to 1000 nM | 200 to 1000 nM | 200 to 1000 nM | ≤ 200 nM | 200 to 1000 nM | > 1000 nM |
| C=CC(=O)N1CCC(Oc2cc3c(NCc4ccccc4)ncnc3cc2OC)CC1 [Compound 123, 1-(4-((4-(benzylamino)-7-methoxyquinazolin-6-yl)oxy)piperidin-1-yl)prop-2-en-1-one] | ≤ 200 nM | 200 to 1000 nM | ≤ 200 nM | ≤ 200 nM | 200 to 1000 nM | 200 to 1000 nM |
| C=CC(=O)N1CCC(Oc2cc3c(NCc4cccc(C#N)c4)ncnc3cc2OC)CC1 [Compound 124, 3-(((6-((1-acryloylpiperidin-4-yl)oxy)-7-methoxyquinazolin-4-yl)amino)methyl)benzonitrile] | > 1000 nM | > 1000 nM | > 1000 nM | ≤ 200 nM | > 1000 nM | > 1000 nM |
| C=CC(=O)N1CCC(Oc2cc3c(NCc4cccc(I)c4)ncnc3cc2OC)CC1 [Compound 125, 1-(4-((4-((3-iodobenzyl)amino)-7-methoxyquinazolin-6-yl)oxy)piperidin-1-yl)prop-2-en-1-one] | 200 to 1000 nM | 200 to 1000 nM | 200 to 1000 nM | ≤ 200 nM | 200 to 1000 nM | 200 to 1000 nM |
| C=CC(=O)N1CCC(Oc2cc3c(NC(C(=O)O)c4cccc(Cl)c4)ncnc3cc2OC)CC1 (stereo not drawn) [Compound 126, 2-((6-((1-acryloylpiperidin-4-yl)oxy)-7-methoxyquinazolin-4-yl)amino)-2-(3-chlorophenyl)acetic acid] | > 1000 nM | > 1000 nM | > 1000 nM | > 1000 nM | > 1000 nM | > 1000 nM |
| C=CC(=O)N1CCC(Oc2cc3c(NC(C(N)=O)c4cccc(Cl)c4)ncnc3cc2OC)CC1 (stereo not drawn) [Compound 127, 2-((6-((1-acryloylpiperidin-4-yl)oxy)-7-methoxyquinazolin-4-yl)amino)-2-(3-chlorophenyl)acetamide] | 200 to 1000 nM | > 1000 nM | > 1000 nM | ≤ 200 nM | > 1000 nM | > 1000 nM |
| C=CC(=O)N1CCC(Oc2cc3c(NC(CC(=O)O)c4cccc(Cl)c4)ncnc3cc2OC)CC1 (stereo not drawn) [Compound 129, 3-((6-((1-acryloylpiperidin-4-yl)oxy)-7-methoxyquinazolin-4-yl)amino)-3-(3-chlorophenyl)propanoic acid] | > 1000 nM | > 1000 nM | > 1000 nM | > 1000 nM | > 1000 nM | > 1000 nM |
| C=CC(=O)N1CCC(Oc2cc3c(NC(CC(N)=O)c4cccc(Cl)c4)ncnc3cc2OC)CC1 (stereo not drawn) [Compound 130, 3-((6-((1-acryloylpiperidin-4-yl)oxy)-7-methoxyquinazolin-4-yl)amino)-3-(3-chlorophenyl)propanamide] | ≤ 200 nM | > 1000 nM | 200 to 1000 nM | ≤ 200 nM | > 1000 nM | 200 to 1000 nM |
| C=CC(=O)N1CCC(Oc2cc3c(NC(CCO)c4cccc(Cl)c4)ncnc3cc2OC)CC1 (stereo not drawn) [Compound 131, 1-(4-((4-((1-(3-chlorophenyl)-3-hydroxypropyl)amino)-7-methoxyquinazolin-6-yl)oxy)piperidin-1-yl)prop-2-en-1-one] | ≤ 200 nM | ≤ 200 nM | ≤ 200 nM | ≤ 200 nM | > 1000 nM | ≤ 200 nM |
| C=CC(=O)N1CCCC(Oc2cc3c(Nc4ccc(Cl)c(Cl)c4F)ncnc3cc2OC)C1 (stereo not drawn) [Compound 132, 1-(3-((4-((3,4-dichloro-2-fluorophenyl)amino)-7-methoxyquinazolin-6-yl)oxy)piperidin-1-yl)prop-2-en-1-one] | 200 to 1000 nM | 200 to 1000 nM | 200 to 1000 nM | ≤ 200 nM | > 1000 nM | 200 to 1000 nM |
